In PubChem BioAssay (NCI):
Where “and” joins values, the source holds several entries; their conditions need not be identical. Equal values may be shown once.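 Step 1: Grow cells in 96-well plates. Step 2: Expose to compound for 48 hours at 5 concentrations. Step 3: Interpolate endpoints linearly; if unreached, use highest concentration. GI50 is the concentration that inhibits growth by half. Definition used: TGI = concentration required for complete inhibition of growth.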 Where a SMILES comes first, the peptide text is derived from it. The star is where a group is joined. Cbz = O=C(OCc1ccccc1)*; CH2Cl = ClC*

Legend:
Assay in all cases: NCI tumour cell line growth inhibition, 48 h
XF 498 CNS = tested on: XF 498 CNS
DMS 273 small cell lung = tested on: DMS 273 small cell lung
SNB-78 CNS = tested on: SNB-78 CNS
RXF-631 renal = tested on: RXF-631 renal
T-47D breast = tested on: T-47D breast
MDA-N = tested on: MDA-N

| Structure (SMILES) | TGI (DMS 273 small cell lung) [µM] | TGI (SNB-78 CNS) [µM] | GI50 (T-47D breast) [µM] | TGI (T-47D breast) [µM] | also measured |
| --- | --- | --- | --- | --- | --- |
| O=C1/C(=C/c2ccc(Cl)cc2)CCC1CCN1CCOCC1 (stereo not drawn) | > 100 | > 100 | – | – | TGI (XF 498 CNS): > 100 µM; TGI (RXF-631 renal): > 100 µM |
| CC(=O)Oc1c2c(c(O)c3ccccc13)C(n1cnc3c(ncn3C3OC(CO)C4OC(C)(C)OC43)c1=N)CCC2 (stereo not drawn) | 40.6 | 59.6 | – | – | – |
| COc1ccc2c(c1)C(=O)c1c-2c(N2CCN(C(=O)CNCCNCCO)CC2)nc2ccccc12 | – | – | 2.49 | 6.55 | – |
| O=C1OCC2=C1C(c1cccc(Br)c1)c1cc3c(cc1N2CCO)CCC3 (stereo not drawn) | – | – | 2.37 | 17.9 | – |
| CCOc1ccc(NC(=O)C(=O)CC(=O)c2c(C)n([O-])c3ccccc3[n+]2=O)cc1 | > 100 | > 100 | – | – | TGI (XF 498 CNS): > 100 µM; TGI (RXF-631 renal): > 100 µM |
| COc1cc(Cn2c(-c3ccccc3)c(Cl)c3c2-c2oncc2CC3)cc(OC)c1 | – | – | 17.5 | > 100 | – |
| O=c1ccn([C@H]2CSC[C@@H](CO)C2)c(=O)[nH]1 | > 100 | > 100 | – | – | TGI (RXF-631 renal): > 100 µM |
| CC(C)CC(NC(=O)OCc1ccccc1)C(=O)NC(Cc1ccccc1)C(=O)CCl (stereo not drawn) (Cbz-Leu-Phe-CH2Cl; configuration not given here) | – | – | – | 4.89 | TGI (MDA-N): 3.19 µM |
| OCC1OC(c2nc(C3=NCCCN3)cs2)C(O)C1O (stereo not drawn) | > 100 | > 100 | – | – | TGI (XF 498 CNS): > 100 µM; TGI (RXF-631 renal): > 100 µM |
| COc1ccc(/C=C2/N=C(c3ccccc3)N(c3c(C)n(C)n(-c4ccccc4)c3=O)C2=O)cc1OC | – | – | 77.5 | > 100 | – |
| COc1cc2c(cc1OCCCNC(=O)c1cccc3c(=O)c4ccccc4[nH]c13)N=C[C@@H]1CCCN1C2=O | – | – | < 0.01 | 29.6 | – |
| Cc1[nH]c2ccccc2c1C(=O)/C=C/c1ccccc1O | > 100 | – | – | – | TGI (XF 498 CNS): > 100 µM |
| O=C(CSc1nc2ccccc2nc1-c1ccccc1)Nc1ccc(F)cc1 | – | – | 19.2 | 99.4 | – |
| CCn1c2ccccc2c2cc(NC(=O)Nc3ccc([N+](=O)[O-])cc3C)ccc21 | – | – | 2.34 | 9.54 | – |
| Cn1cc(C2=C(c3cn(CCCCO)c4ccccc34)C(=O)NC2=O)c2ccccc21 | – | – | 9.64 | 24.8 | – |
| COC1(OC)C(N(C)C)=C(Cl)C(=O)/C1=C/C=O | > 100 | – | – | – | – |
| O=C(Nc1nc(=S)c2c(ncn2CCOC(=O)c2ccccc2)[nH]1)c1ccccc1 | > 100 | > 100 | – | – | – |
| Cn1cc(NC(=O)Nc2cc(C(=O)Nc3cc(C(=O)Nc4ccc(S(=O)(=O)O)c5cc(S(=O)(=O)O)ccc45)n(C)c3)n(C)c2)cc1C(=O)Nc1cc(C(=O)Nc2ccc(S(=O)(=O)O)c3cc(S(=O)(=O)O)ccc23)n(C)c1 | – | – | – | > 100 | TGI (MDA-N): > 100 µM |
| COc1ccc(CC2NCCc3c2[nH]c2ccccc32)cc1 (stereo not drawn) | 87.7 | > 100 | – | – | TGI (XF 498 CNS): 66.5 µM; TGI (RXF-631 renal): 73.5 µM |
| CC1c2c(Cl)nc3ccccc3c2Oc2c1c(Cl)nc1ccccc21 | > 100 | > 100 | – | – | – |

| Structure (SMILES) | TGI (DMS 273 small cell lung) [µM] | TGI (SNB-78 CNS) [µM] | GI50 (T-47D breast) [µM] | TGI (T-47D breast) [µM] | also measured |
| --- | --- | --- | --- | --- | --- |
| O=C(c1ccccc1Br)C(F)(F)F | – | – | – | > 100 | TGI (MDA-N): > 100 µM |
| CCCN1C(=O)N(CCC)C2C1NC(=S)N2/N=C/C=C/c1ccccc1OC (stereo not drawn) | – | – | 0.376 | 37 | – |
| C=C(Cl)C(Br)(CCl)CCC(Br)C(C)(C)Cl (stereo not drawn) | – | – | 30.1 | – | GI50 (MDA-N): 2.05 µM; TGI (MDA-N): 7.34 µM and 4.3 µM |
| Clc1ccc2[nH]cc(-c3nnnn3-c3ccccc3)c2c1 | – | – | > 45.3 | > 100 | – |
| CCOC(=O)C(Cc1ccc(CCCC(=O)NCCC(=O)Nc2ccc3nc(C)sc3c2)cc1)C(=O)OCC | – | – | 19.7 | 74.1 | – |
| N#CC(C(=O)C(=O)C(C#N)c1ccc(Br)cc1)c1ccc(Br)cc1 (stereo not drawn) | 24.9 | 37.4 | – | – | – |
| CO/N=C(\COc1ccc2c(c1)oc(=O)c1cc(OC)ccc12)c1ccc(OC)cc1 | – | – | > 100 | > 100 | – |
| CCC(C)COC(=O)c1ccc(N=Cc2ccc(C=Nc3ccc(C(=O)OCC(C)CC)cc3)cc2)cc1 (stereo not drawn) | > 100 | > 100 | – | – | TGI (RXF-631 renal): > 100 µM |
| O=C(O)Cc1cc(Cl)ccc1O | – | – | – | > 100 | TGI (MDA-N): > 100 µM |
| CC[C@H]1[C@@H]2C=C[C@@H]3[C@H]4C/C=C\C(=O)NCCC[C@@H]5NC(=O)/C(=C(O)/C=C/[C@@H]4C[C@@H]3[C@H]2C[C@H]1C)C5=O | – | – | 1.7 | 4.1 | – |
| CCOC(=O)Nc1ccc(C)c(NC(=O)OCC)c1 | – | – | – | > 100 | TGI (MDA-N): > 100 µM |
| Cc1c2c(C#N)nccc2c(C)c2c1c1ccccc1n2Cc1ccccc1 | – | – | – | > 100 | TGI (MDA-N): > 100 µM |
| COc1cc(NS(C)(=O)=O)ccc1Nc1c2ccccc2nc2c1[nH]c1ccc(NC3OC(CO)C(O)C(O)C3O)cc12 (stereo not drawn) | 0.261 | 9.3 | – | 15.7 | TGI (XF 498 CNS): 0.832 µM; TGI (MDA-N): 2.71 µM |
| CC(=O)c1sc(Nc2nnc(-c3ccc(-c4nnc(Nc5nc(C)c(C(C)=O)s5)o4)cc3)o2)nc1C | > 100 | > 100 | – | – | – |
| COc1c(OC[C@H](O)CN2CCOCC2)ccc2c3n(c(=NC(=O)c4cccnc4C)nc12)CCN3 | – | – | 0.0315 | 0.361 | – |
| CC1CN(C(=O)CN2CCC(CCCCN(C)C)CC2)c2ccccc2NC1=O (stereo not drawn) | > 100 | – | – | – | TGI (RXF-631 renal): > 100 µM |
| CC(=O)OC12C=CC(=O)N1c1ccccc1C(=O)O2 (stereo not drawn) | > 100 | > 100 | > 100 | > 100 | TGI (XF 498 CNS): > 100 µM |
| CCSc1ncnc2c1ncn2C1OC(CO)C(O)C1O (stereo not drawn) | – | – | 1.69 | > 48.9 | – |
| CN=C1CC2c3cc(OC)c(OC)cc3CCN2C2=C1C(=O)CC(C)(C)C2 (stereo not drawn) | > 100 | > 100 | – | – | – |
| O=C(/C=C/c1cccc2ccccc12)c1ccccc1Cl | 31.5 | 40.9 | – | – | TGI (XF 498 CNS): 20.6 µM; TGI (RXF-631 renal): 41.9 µM |
